In US10456434B2, “Extracts obtained from cell line cultures from plants belonging to the Oleaceae family (e.g. Syringa vulgaris), their preparation and use” (CRODA ITALIANA S. P. A., priority 2005, dated 2019):

Assays:
[1] = biological target: T1, 5 alpha reductase type II (Homo sapiens, UniProt P31213); assay: Type II 5 alpha reductase inhibition (14C testosterone conversion); format: biochemical; conditions: pH 5.0
T1 construct: made in house; host or cells: genetically modified yeast
T1 sequence (P31213 1-254): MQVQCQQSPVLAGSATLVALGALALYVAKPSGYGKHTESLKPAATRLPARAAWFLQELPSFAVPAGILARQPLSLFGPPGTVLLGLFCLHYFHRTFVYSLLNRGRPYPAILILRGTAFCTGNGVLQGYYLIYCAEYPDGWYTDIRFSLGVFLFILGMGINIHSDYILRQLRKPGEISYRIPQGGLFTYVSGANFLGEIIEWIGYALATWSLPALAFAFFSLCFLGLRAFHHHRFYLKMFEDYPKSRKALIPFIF
Text: Determination of the 5 alpha reductase inhibitory activities by Syringa vulgaris extracts, verbascoside and isoverbascoside in comparison to Serenoa repens extracts. Said determination, has been performed using enzymes (5 alpha reductase, type I and type II) produced by genetically modified yeast. Enzyme activities have been determined in the presence of Syringa vulgaris and Serenoa repens extracts, verbascoside isoverbascoside.
Determination of the type II 5 alpha reductase activity has been performed in an analogous manner to that just described, with the exception of a different pH value for the 0.1 M Tris-citrate buffer (pH 5.0).
In both assays, the steroids have been extracted using 5 ml of methylene chloride. The extracts have then been dried under a stream of nitrogen and the dried residues obtained have, been dissolved in 20 μl of a chloroform-methanol mixture (2:1 v/v). An aliquot of said mixture has been deposited on the surface of a silica gel TLC plate. […] For quantification of the results, the spots have been scraped from the TLC plate and extracted with 2 ml of ethyl acetate. The extracts obtained have been analysed, using scintillation fluid, with the aid of a Wallach […]. The enzyme activity has been calculated from the percentage conversion (C %) of the substrate into final product:
C %=[counted product/(counted substrate+product)]×100.

platelets [2] = assay: Platelet disaggregation 10 minutes after ADP; format: cell-based, rabbit; conditions: 1.0 mg/ml
Protocol: (§1) Platelet enriched rabbit plasma has been used to assess the platelet anti-aggregating and disaggregating properties of Syringa vulgaris Extract 1, verbascoside and isoverbascoside. Platelet rich plasma has been obtained from rabbit venous blood by mixing it with a 3.8% sodium citrate solution (9:1 v/v). The solution has then been centrifuged at 460×g for 20 minutes. The supernatant has been collected and immediately used for the aggregation assays. Platelet aggregation has been recorded using a Chronolog “Ionised calcium platelet aggregometer” (Chrono-log Co., USA). All measurements have been performed at 37° C. with continuous stirring. […] Then 10 μl of a solution of ADP (final concentration—10 μm) has been added and the luminous transmittance continuously recorded. The results are expressed as the DÒ/DÒÊ ratio, where DÒÊ and DÒ are the luminous transmittance values, in the absence and presence of extract respectively. Platelet disaggregation (the disappearance of pre formed aggregates) has been determined using the same luminous transmittance curve 10 minutes following the addition of ADP. The results are expressed as the DR/DRk ratio, where DRk and DR, are the luminous transmittance in the absence and presence of extract. […]

[3] = system: Malassezia furfur ST 8036; assay: Multiple dilution antimycotic assay, Malassezia furfur; format: cell-based; conditions: assayed at 0.625-5 mg/ml
Protocol: (§2) With the aim of identifying any potential antifungal activity in the Syringa vulgaris extracts, microbiological assays have been prepared, generally known as multiple dilution assays. Such assays have been performed using the following fungal strains: Trycophyton rubrum ATCC 28188 and Malassezia furfur ST 8036. Syringa vulgaris Extracts 1 and 2, verbascoside and isoverbascoside have been assayed at concentrations of […], 1.25 mg/ml, 2.5 mg/ml and 5 mg/ml. The fungal strains used for testing have been inoculated into culture-broth (in Tryptone soy broth medium, for Malassezia furfur the culture medium has been supplemented with 2 ml/100 ml of olive oil) containing Syringa vulgaris extracts 1 and 2, verbascoside and isoverbascoside at the concentrations described above. In parallel with these tests, culture broths containing the microbial strain alone have been prepared (controls). The culture-broths have, been incubated at 30° C. for a period of 28 days. Samples of the various culture-broths have been taken at 0, 7, 14, 21 and 28 days, with the aim of counting the number of CFU/ml in relation to the various fungal strains, by plating the cultures on solid medium. A certain number of serial dilutions have been prepared for each sample in order to determine the fungal load of each culture-broth. Each dilution has been assayed in triplicate on solid medium. […]

tyrosinase = assay: Tyrosinase inhibition, oxidation of L-tyrosine to L-DOPA; format: biochemical; conditions: 250 μg/ml
Text: The enzyme tyrosinase catalyses the reactions leading to melanin biosynthesis from tyrosine. […] Substances inhibiting tyrosinase activity produce clearing/bleaching effect on the skin, since they block melanin synthesis. The method used to determine the inhibition of tyrosinase activity in the oxidation reaction of L-tyrosine to L-DOPA is that described in Kim et al. […] Biol. Pharm. Bull. 28(2), 323-327, 2005). The method applied for determination of the inhibition of tyrosinase activity in the conversion of L-DOPA to DOPAquinone is that described in Masamoto et al. (Mushroom tyrosinase inhibitory activity of esculetin isolated from seeds of Euphorbia lathyris L. Biosci. Biotechnol. Biochem., 67(3), 631-634, 2003).

[4] = system: Trycophyton rubrum ATCC 28188; assay: Multiple dilution antimycotic assay, Trycophyton rubrum; format: cell-based; conditions: assayed at 0.625-5 mg/ml
Protocol: as §2

[5] = Metal chelating activity (spectrophotometric), Cu2+; format: binding; conditions: chelation equilibrium constant, calculated for a pure phenylpropanoid
Text: The chelating activities of Syringa vulgaris extracts, verbascoside and isoverbascoside in relation to Fe^2+, Fe^3+, Cu^2+ and Ni^2+ metal ions has been determined by means of spectrophotometric measurements using a Shimadzu 1770 UV spectrophotometer. The activities of chelating agents depends on the association constant (equilibrium) of their reactions with the metals according to the following reaction:
[formula] wherein Keq is the equilibrium constant equal to the ratio of concentrations at equilibrium of a complex and product of equilibrium concentrations of metal ions and a chelator:
[formula] The method used for determining chelating activity is well documented in the literature (Korkina L G, Afarras'er IB. Antioxidant and chelating properties of flavonoids. Adv. Pharmacol., 1997, 38:151-63). The results are expressed as Keg (M^−1) calculated for a pure phenylpropanoid. This way the chelating activity against ferrous (Fe II), ferric (Fe III), copper (Cu II) and nickel ions has been calculated.

platelets [6] = assay: ADP induced platelet aggregation in platelet rich plasma; format: cell-based, rabbit; conditions: 1.0 mg/ml
Protocol: as §1

Structure (SMILES)	IC50 [1]	Disaggregation (% with respect to control) (platelets [2])	antimycotic activity towards Malassezia furfur (in words) [3]	Test L-tyrosine-DOPA inhibitory activity (%) (tyrosinase)	antimycotic activity towards Trycophyton rubrum (in words) [4]	Cu^2+ (Keq, M^−1) [5]	Aggregation (% with respect to control) (platelets [6])
CC1OC(OC2C(O)C(COC(=O)C=Cc3ccc(O)c(O)c3)OC(OCCc3ccc(O)c(O)c3)C2O)C(O)C(O)C1O [Isoverbascoside, b-(3,4-dihydroxyphenyl)-ethyl-O-α-L-ramnopyranosyl(1″-3′)-b-D-(6′-O-caffeoil)glucopyranoside]	32 µM	75 ± 21%	activity comparable to Extract 1	10.9%	activity comparable to Extract 1	130000 ± 60000 M⁻¹	25 ± 6 %
C[C@@H]1O[C@@H](O[C@@H]2[C@@H](O)[C@H](OCCc3ccc(O)c(O)c3)O[C@H](CO)[C@H]2OC(=O)/C=C/c2ccc(O)c(O)c2)[C@H](O)[C@H](O)[C@H]1O [Verbascoside, b-(3,4-dihydroxyphenyl)-ethyl-O-α-L-ramnopyranosyl (1″-3′)-b-D-(4′-O-caffeoil)-glucopyranoside]	33.6 µM	73 ± 21%	activity comparable to Extract 1	19.6%	activity comparable to Extract 1	120000 ± 40000 M⁻¹	24 ± 6 %
